For data set [1], the system named is myogenin and MRF4. In words: Western blot of myogenic markers myogenin and MRF4. The format is cell-based, rat. Particulars: DM. The protocol: In addition, the protein expression levels of the myogenin and MRF4, early and late myogenic markers, were determined by Western blot analysis. To this end, myoblast extracts treated with the drugs were separated on SDS-PAGE and transferred onto a nitrocellulose membrane which was then blocked and reacted with predetermined primary antibodies (polyclonal myogenic antibody and polyclonal MRF4 antibody (Santa Cruz, Calif., USA) and then with a secondary antibody (anti-rabbit IgG-HRP conjugate with a chemiluminescent reactive enzyme able to detect the primary antibodies) (Santa Cruz, Calif., USA). Finally, the specimens were detected by enhanced ECL-plus chemiluminescence (Amersham Pharmacia Biotech, Piscataway, N.J., USA). Non-myogenic β-actin protein was used as a loading control.
Background: Immunoblotting shows a protein as a band on a membrane.

The subject of data set [2] is H9c2 myoblasts. Kind of data set: Apoptosis by in-situ TUNEL assay and DNA fragmentation analysis. The format is cell-based, rat. The note with it: 72 hours in DM. The protocol: TUNEL analysis was performed using ApopTag Flurescein In situ Apoptosis Detection kit (Intergen, Purchase, N.Y.). The results are given in FIG. 2c where arrows indicate TUNEL positive cells.
Once cells undergo apoptosis, the DNA is digested into fragments diferring by 180-200 bp by endonuclease. […] DNA fragmentation aiming to identify the DNA laddering pattern was performed as follows. […] The cell lysates thus obtained were treated with 50 μg/ml RNase A at 37° C. for 2 hours and then with 500 μg/ml proteinase K at 55° C. for 2 hours. DNA was extracted by a phenol/chloroform method and precipitated in 70% (v/v) isopropanol. After being centrifuged at 15,000 rpm for 15 min, the precipitates were dissolved in a TE buffer (10 mM Tris-HCl (pH 8.0), 1 mM EDTA).

Data set [3] relates to ROS. Kind of data set: Cellular ROS level by DCF flow cytometry (FACS). The format is cell-based, rat. Particulars: 10 μM, 24 hours in DM. The protocol: H9c2 myoblasts were cultured for 24 hours in PM and in DM, and then in the presence of 10 μM DCF (2′,7′-dichlorofluorescein). After being harvested, the cells were washed once with PBS and resuspended in […] of PBS. The cellular levels of ROS generated were measured by flow cytometry (FACS), there values were regarded as controls. […] ROS levels were analyzed by FACS. […] ROS levels were measure as the above. The results are given in FIG. 5a where numerals indicate mean±standard deviation values of the ROS levels in the cells.

Data set [4] relates to H9c2 rat cardiac myoblasts. Kind of data set: Morphological observation of muscle differentiation of myoblasts in DM. The format is cell-based. Particulars: 72 hours in DM. The procedure: As a control, myoblasts were cultured in the absence of the drugs. Before use, the myoblasts were cultured to a cell confluency of about 70%.

As to `C/C=C/C[C@@H](C)[C@@H](O)[C@H]1C(=O)N[C@@H](CC)C(=O)N(C)CC(=O)N(C)[C@@H]([C@@H](C)CC)C(=O)N[C@@H](C(C)C)C(=O)N(C)[C@@H](CC(C)C)C(=O)N[C@@H](C)C(=O)N[C@H](C)C(=O)N(C)[C@@H](CC(C)C)C(=O)N(C)[C@@H](CC(C)C)C(=O)N(C)[C@@H](C(C)C)C(=O)N1C` [SDZ NIM811], the “myogenin and MRF4 protein expression” value was “partial suppression” in data set [1] (1 μM) and “complete suppression” in data set [1] (concentrations higher than 1 μM). Besides, the “apoptosis (TUNEL, DNA laddering)” value in data set [2] is recorded as “dose dependent”. For the same compound, the “ROS level (mean±standard deviation)” value in data set [3] was determined as 634±20. Besides, in data set [4], the “morphological changes during muscle differentiation” value is listed as “blocks the myoblast differentiation”.

(Values after US20080181875A1, “USE OF CYCLOPHILIN AS ANTIOXIDANT AND PREVENTION OF CYCLOSPORIN A-INDUCED TOXICITY IN CELL TRANSPLANTATION BY OVEREXPRESSION OF CYCLOPHILIN” (priority 2002, published 2008).)
